Experimental data taken from patent US20250314644A1, “METHODS COMPRISING DETECTION OF ADP-HEPTOSE” (CHILDREN'S HOSPITAL MEDICAL CENTER, priority 2023, published 2025).

Assays:
[1] = tested on: Dnmt3a^−/− HSCs relative to WT HSCs; experiment: In vitro HSC competition assay; type: cell-based, mouse; conditions: co-culture, ADP-heptose for 14 days
Excerpt: The polyvinyl alcohol-based in vitro HSC expansion protocol was adapted as previously described. (Wilkinson, A. C., et al. Long-term ex vivo haematopoietic-stem-cell expansion allows nonconditioned transplantation. Nature 571, 117-121 (2019) and Wilkinson, A. C., Ishida, R., Nakauchi, H. & Yamazaki, S. Long-term ex vivo expansion of mouse hematopoietic stem cells. Nat Protoc 15, 628-648 (2020).) 50 HSCs from WT-GFP (C57BL/6-Tg(UBC-GFP)30Scha/J, Cat no. 004353, Jackson Labs) and 50 HSCs from Dnmt3a^−/− mice were sorted directly into each well of a fibronectin-coated 96-well plate (Cat no. 08-774-60, Fisher Scientific) with Ham's F12 nutrient mix media (Cat no. 11765054, Thermo Fisher Scientific) containing final concentrations of 1× penicillin-streptomycin-glutamine (Cat no. 10378-016, Thermo Fisher Scientific), 10 mM HEPES (Cat no. 15630080, Thermo Fisher Scientific), 1× insulin-transferrin-selenium-ethanolamine (ITS-X, Cat no. 51500056, Thermo Fisher Scientific), 100 ng/mL recombinant murine TPO (Cat no. […] After 14 days of ADP-heptose treatment, cells were harvested, counted by trypan blue exclusion assay, and analyzed by flow cytometry. To enumerate cells, a defined number of CountBright Absolute Counting Beads (Thermo Fisher Scientific, Cat no. C36950) were added to each sample and cell count was back calculated to the proportion of the total that were run through the cytometer.

Dnmt3a^KO cells = experiment: RNA-sequencing of HSPCs treated in vitro with ADP-heptose or H2O for 90 minutes; type: cell-based, mouse

With `Nc1ncnc2c1ncn2[C@@H]1O[C@H](COP(=O)(O)OP(=O)(O)O[C@@H]2O[C@H]([C@H](O)CO)[C@@H](O)[C@H](O)[C@@H]2O)[C@@H](O)[C@H]1O` [ADP-heptose, ADP-D-glycero-β-D-manno-heptose] the “in vitro competition of Dnmt3a^−/− HSCs relative to WT HSCs” value [1] was “competitive advantage”, the “gene expression changes (global transcriptomic analysis)” value (Dnmt3a^KO cells; Dnmt3a^−/− compared to WT LSKs) was “significant gene expression changes” and the logFC (Dnmt3a^KO cells; gene 2610037D02Rik, Dnmt3a^KO cells) was −0.596. For the same molecule, the logFC (Dnmt3a^KO cells; gene 5031425F14Rik, Dnmt3a^KO cells) was 0.6597, the logFC (Dnmt3a^KO cells; gene 6330549D23Rik, Dnmt3a^KO cells) was 0.6997 and the logFC (Dnmt3a^KO cells; gene A130077B15Rik, Dnmt3a^KO cells) was −0.592. For the same molecule, the logFC (Dnmt3a^KO cells; gene AF251705, Dnmt3a^KO cells) was 0.6212, the logFC (Dnmt3a^KO cells; gene Adm, Dnmt3a^KO cells) was 1.598 and the logFC (Dnmt3a^KO cells; gene Afp, Dnmt3a^KO cells) was 0.7049. It also gave a logFC (Dnmt3a^KO cells; gene Ahrr, Dnmt3a^KO cells) of 1.585, a logFC (Dnmt3a^KO cells; gene Angptl2, Dnmt3a^KO cells) of 0.6418 and a logFC (Dnmt3a^KO cells; gene Avil, Dnmt3a^KO cells) of 1.557. For the same molecule, the logFC (Dnmt3a^KO cells; gene Baiap2, Dnmt3a^KO cells) was 0.7135, the logFC (Dnmt3a^KO cells; gene Baiap2l1, Dnmt3a^KO cells) was 0.6616 and the logFC (Dnmt3a^KO cells; gene C1qb, Dnmt3a^KO cells) was 0.6904. The logFC (Dnmt3a^KO cells; gene C1qc, Dnmt3a^KO cells) was 0.6327, the logFC (Dnmt3a^KO cells; gene Carns1, Dnmt3a^KO cells) was 0.6216 and the logFC (Dnmt3a^KO cells; gene Ccl2, Dnmt3a^KO cells) was 0.6432. It also gave a logFC (Dnmt3a^KO cells; gene Ccl24, Dnmt3a^KO cells) of 1.576, a logFC (Dnmt3a^KO cells; gene Cd28, Dnmt3a^KO cells) of 0.6845 and a logFC (Dnmt3a^KO cells; gene Cd40, Dnmt3a^KO cells) of 0.6974. The logFC (Dnmt3a^KO cells; gene Cd74, Dnmt3a^KO cells) was 0.6203, the logFC (Dnmt3a^KO cells; gene Ces1d, Dnmt3a^KO cells) was 0.5862 and the logFC (Dnmt3a^KO cells; gene Chst10, Dnmt3a^KO cells) was 0.609. The logFC (Dnmt3a^KO cells; gene Ciita, Dnmt3a^KO cells) was 0.6462, the logFC (Dnmt3a^KO cells; gene Clec10a, Dnmt3a^KO cells) was 0.615 and the logFC (Dnmt3a^KO cells; gene Col1a1, Dnmt3a^KO cells) was 0.5944. It also gave a logFC (Dnmt3a^KO cells; gene Col15a1, Dnmt3a^KO cells) of 0.6093, a logFC (Dnmt3a^KO cells; gene Cxcl3, Dnmt3a^KO cells) of 0.6695 and a logFC (Dnmt3a^KO cells; gene Cxcr2, Dnmt3a^KO cells) of −0.587. For the same molecule, the logFC (Dnmt3a^KO cells; gene Dcstamp, Dnmt3a^KO cells) was 0.7137, the logFC (Dnmt3a^KO cells; gene Dnah6, Dnmt3a^KO cells) was 0.6061 and the logFC (Dnmt3a^KO cells; gene Dqx1, Dnmt3a^KO cells) was 0.6377. The logFC (Dnmt3a^KO cells; gene Emp1, Dnmt3a^KO cells) was 0.6342, the logFC (Dnmt3a^KO cells; gene Etohi1, Dnmt3a^KO cells) was −0.586 and the logFC (Dnmt3a^KO cells; gene Fam167a, Dnmt3a^KO cells) was 0.6175. For the same molecule, the logFC (Dnmt3a^KO cells; gene Fblim1, Dnmt3a^KO cells) was 0.5971, the logFC (Dnmt3a^KO cells; gene Flrt2, Dnmt3a^KO cells) was 0.7192 and the logFC (Dnmt3a^KO cells; gene Gm8369, Dnmt3a^KO cells) was −0.599. For the same molecule, the logFC (Dnmt3a^KO cells; gene Gm17455, Dnmt3a^KO cells) was 0.7125, the logFC (Dnmt3a^KO cells; gene Grap, Dnmt3a^KO cells) was 0.6793 and the logFC (Dnmt3a^KO cells; gene Grm1, Dnmt3a^KO cells) was 1.762. It also gave a logFC (Dnmt3a^KO cells; gene Gzmb, Dnmt3a^KO cells) of 0.674, a logFC (Dnmt3a^KO cells; gene Gzmc, Dnmt3a^KO cells) of 1.782 and a logFC (Dnmt3a^KO cells; gene H2-DMb2, Dnmt3a^KO cells) of 0.6529. For the same molecule, the logFC (Dnmt3a^KO cells; gene H2-Eb1, Dnmt3a^KO cells) was 0.5954, the logFC (Dnmt3a^KO cells; gene H2-Eb2, Dnmt3a^KO cells) was 0.6221 and the logFC (Dnmt3a^KO cells; gene H2-K2, Dnmt3a^KO cells) was 0.6688. It also gave a logFC (Dnmt3a^KO cells; gene Hic1, Dnmt3a^KO cells) of 1.783, a logFC (Dnmt3a^KO cells; gene Hist1h2ag, Dnmt3a^KO cells) of 0.6273 and a logFC (Dnmt3a^KO cells; gene Hist1h2bc, Dnmt3a^KO cells) of 0.6716. It also gave a logFC (Dnmt3a^KO cells; gene Hist1h2be, Dnmt3a^KO cells) of 0.6244, a logFC (Dnmt3a^KO cells; gene Hist1h2bf, Dnmt3a^KO cells) of 0.6891 and a logFC (Dnmt3a^KO cells; gene Hist1h2bj, Dnmt3a^KO cells) of 0.665. The logFC (Dnmt3a^KO cells; gene Hist1h4d, Dnmt3a^KO cells) was 0.592, the logFC (Dnmt3a^KO cells; gene Hyal1, Dnmt3a^KO cells) was 0.599 and the logFC (Dnmt3a^KO cells; gene Igf2bp2, Dnmt3a^KO cells) was 0.6643. It also gave a logFC (Dnmt3a^KO cells; gene Il12rb1, Dnmt3a^KO cells) of 0.6261, a logFC (Dnmt3a^KO cells; gene Iqcg, Dnmt3a^KO cells) of 0.6826 and a logFC (Dnmt3a^KO cells; gene Itgb7, Dnmt3a^KO cells) of 0.6248. It also gave a logFC (Dnmt3a^KO cells; gene Lars2, Dnmt3a^KO cells) of 0.6326, a logFC (Dnmt3a^KO cells; gene Lif, Dnmt3a^KO cells) of 0.6432 and a logFC (Dnmt3a^KO cells; gene Loxl3, Dnmt3a^KO cells) of 0.5934. It also gave a logFC (Dnmt3a^KO cells; gene Lrrc51, Dnmt3a^KO cells) of 0.669, a logFC (Dnmt3a^KO cells; gene Map3k15, Dnmt3a^KO cells) of 0.7124 and a logFC (Dnmt3a^KO cells; gene Matk, Dnmt3a^KO cells) of 0.5934. It also gave a logFC (Dnmt3a^KO cells; gene Mir6236, Dnmt3a^KO cells) of 0.6256, a logFC (Dnmt3a^KO cells; gene Mmp12, Dnmt3a^KO cells) of 0.7097 and a logFC (Dnmt3a^KO cells; gene Mrc1, Dnmt3a^KO cells) of 0.7023. It also gave a logFC (Dnmt3a^KO cells; gene N4bp3, Dnmt3a^KO cells) of 0.6853, a logFC (Dnmt3a^KO cells; gene Nqo1, Dnmt3a^KO cells) of 0.7094 and a logFC (Dnmt3a^KO cells; gene Orm1, Dnmt3a^KO cells) of −0.598. The logFC (Dnmt3a^KO cells; gene P2rx3, Dnmt3a^KO cells) was 0.7048, the logFC (Dnmt3a^KO cells; gene Pcbp3, Dnmt3a^KO cells) was 0.6997 and the logFC (Dnmt3a^KO cells; gene Pf4, Dnmt3a^KO cells) was 0.7165. For the same molecule, the logFC (Dnmt3a^KO cells; gene Phf1, Dnmt3a^KO cells) was 0.595, the logFC (Dnmt3a^KO cells; gene Plekhn1, Dnmt3a^KO cells) was 0.6207 and the logFC (Dnmt3a^KO cells; gene Ppp1r3d, Dnmt3a^KO cells) was −0.595. For the same molecule, the logFC (Dnmt3a^KO cells; gene Procr, Dnmt3a^KO cells) was −0.595, the logFC (Dnmt3a^KO cells; gene Ptgs1, Dnmt3a^KO cells) was 0.6215 and the logFC (Dnmt3a^KO cells; gene Ptprn, Dnmt3a^KO cells) was 0.5867. The logFC (Dnmt3a^KO cells; gene Pvrl1, Dnmt3a^KO cells) was 0.663, the logFC (Dnmt3a^KO cells; gene Rap1gap, Dnmt3a^KO cells) was 0.6406 and the logFC (Dnmt3a^KO cells; gene Retnlg, Dnmt3a^KO cells) was 0.6829. It also gave a logFC (Dnmt3a^KO cells; gene Rn45s, Dnmt3a^KO cells) of 0.6912, a logFC (Dnmt3a^KO cells; gene Rptoros, Dnmt3a^KO cells) of 0.6692 and a logFC (Dnmt3a^KO cells; gene Scn3a, Dnmt3a^KO cells) of 1.51. It also gave a logFC (Dnmt3a^KO cells; gene Serpinb2, Dnmt3a^KO cells) of 0.6945, a logFC (Dnmt3a^KO cells; gene Slc36a2, Dnmt3a^KO cells) of 0.7191 and a logFC (Dnmt3a^KO cells; gene Spag1, Dnmt3a^KO cells) of −0.587. For the same molecule, the logFC (Dnmt3a^KO cells; gene Spry1, Dnmt3a^KO cells) was −0.595, the logFC (Dnmt3a^KO cells; gene Srp54b, Dnmt3a^KO cells) was 1.636 and the logFC (Dnmt3a^KO cells; gene Stfa2l1, Dnmt3a^KO cells) was −0.599. For the same molecule, the logFC (Dnmt3a^KO cells; gene Tdrkh, Dnmt3a^KO cells) was 0.5973, the logFC (Dnmt3a^KO cells; gene Tesc, Dnmt3a^KO cells) was 0.607 and the logFC (Dnmt3a^KO cells; gene Tjp3, Dnmt3a^KO cells) was 0.5969. For the same molecule, the logFC (Dnmt3a^KO cells; gene Tlr5, Dnmt3a^KO cells) was 0.5879, the logFC (Dnmt3a^KO cells; gene Tpmt, Dnmt3a^KO cells) was −0.598 and the logFC (Dnmt3a^KO cells; gene Trem2, Dnmt3a^KO cells) was 0.6257. The logFC (Dnmt3a^KO cells; gene Trib3, Dnmt3a^KO cells) was 0.677, the logFC (Dnmt3a^KO cells; gene Zfp184, Dnmt3a^KO cells) was −0.594 and the logFC (Dnmt3a^KO cells; gene Zfp784, Dnmt3a^KO cells) was 0.6147.
